Results taken from ChEMBL document CHEMBL1201862, “PubChem BioAssay data set” (2004).
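Growth conditions: 96-well plates. Treatment: test compound, 48 hours, 5 concentrations. Analysis: linear interpolation between bracketing concentrations; unreached endpoints set to highest concentration. Here, GI50 denotes the concentration required for 50% inhibition of growth.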 Activity calls are given as the source filed them. Cut-off read from the data, not from the text of the source: active = GI50 up to about 1.1 µM and inactive = higher.

Experiments:
Assay in all cases: DTP human tumour cell line panel, 48 h
SF-268 = tested on: SF-268
MCF7 = tested on: MCF7
HOP-62 = tested on: HOP-62
LOX IMVI = tested on: LOX IMVI
U-251 = tested on: U-251
A549 = tested on: A549
Hs-578T = tested on: Hs-578T
COLO 205 = tested on: COLO 205
DU-145 = tested on: DU-145
NCI/ADR-RES = tested on: NCI/ADR-RES
OVCAR-5 = tested on: OVCAR-5
UO-31 = tested on: UO-31
EKVX = tested on: EKVX
OVCAR-4 = tested on: OVCAR-4
NCI-H460 = tested on: NCI-H460
IGROV-1 = tested on: IGROV-1
HCT-15 = tested on: HCT-15
NCI-H226 = tested on: NCI-H226
SN12C = tested on: SN12C
OVCAR-8 = tested on: OVCAR-8

Compound | GI50 (SF-268) | GI50 (MCF7) | GI50 (HOP-62) | GI50 (LOX IMVI) | GI50 (U-251) | GI50 (A549) | GI50 (Hs-578T) | GI50 (COLO 205) | GI50 (DU-145) | GI50 (NCI/ADR-RES) | GI50 (OVCAR-5) | GI50 (UO-31) | GI50 (EKVX) | GI50 (OVCAR-4) | GI50 (NCI-H460) | GI50 (IGROV-1) | GI50 (HCT-15) | GI50 (NCI-H226) | GI50 (SN12C) | GI50 (OVCAR-8)
CCOCC(=O)N[C@H]1CCc2cc(OC)c(OC)c(OC)c2-c2ccc(SC)c(=O)cc21 | < 0.01 µM (active) | < 0.01 µM (active) | < 0.01 µM (active) | < 0.01 µM (active) | < 0.01 µM (active) | < 0.01 µM (active) | < 0.01 µM (active) | < 0.01 µM (active) | < 0.01 µM (active) | 0.0159 µM (active) | 0.398 µM (active) | 0.0188 µM (active) | 7.94 µM (inactive) | 3.97 µM (inactive) | < 0.01 µM (active) | < 0.01 µM (active) | < 0.01 µM | 0.0465 µM (active) | < 0.01 µM (active) | < 0.01 µM (active)
CC(=O)OC1(C)C=CC(=O)C=C1 | 31 µM (inactive) | 20.4 µM (inactive) | 27.1 µM (inactive) | 32.6 µM (inactive) | 13.3 µM (inactive) | > 100 µM (inactive) | 61.7 µM (inactive) | > 100 µM (inactive) | 36.6 µM (inactive) | 6.3 µM (inactive) | 40.8 µM (inactive) | 23.9 µM (inactive) | 62.5 µM (inactive) | 53.5 µM (inactive) | 25.9 µM (inactive) | 12.9 µM (inactive) | 18 µM | 26.2 µM (inactive) | 62.7 µM (inactive) | 24.7 µM (inactive)
C#CCN(Cc1ccc2nc(OC)c(OC)nc2c1)c1cc(OC)c(OC)c(OC)c1 | 25.1 µM (inactive) | 11.9 µM (inactive) | 22.9 µM (inactive) | 11.7 µM (inactive) | 23.9 µM (inactive) | 18.4 µM (inactive) | 21.2 µM (inactive) | 17.4 µM (inactive) | 27.6 µM (inactive) | 10.7 µM (inactive) | 40.2 µM (inactive) | 22.1 µM (inactive) | 14.8 µM (inactive) | 13.4 µM (inactive) | 20 µM (inactive) | 19.1 µM (inactive) | 22.9 µM | 15.7 µM (inactive) | 18.2 µM (inactive) | 20.7 µM (inactive)
O=C(O)C1C2C=CC(O2)C1C(=O)NCc1ccccn1 (stereo not given) | > 100 µM (inactive) | > 100 µM (inactive) | > 100 µM (inactive) | > 100 µM (inactive) | > 100 µM (inactive) | > 100 µM (inactive) | > 100 µM (inactive) | > 100 µM (inactive) | > 100 µM (inactive) | > 100 µM (inactive) | > 100 µM (inactive) | > 100 µM (inactive) | > 100 µM (inactive) | > 100 µM (inactive) | > 100 µM (inactive) | > 100 µM (inactive) | > 100 µM | > 100 µM (inactive) | > 100 µM (inactive) | > 100 µM (inactive)
